Results: patent publication US4737519A, “Substituted naphthalenes, indoles, benzofurans, and benzothiophenes as lipoxygenase inhibitors” (The Upjohn Company, priority 1986, dated 1988)

How the values were obtained:
canine tracheas = conditions: in vivo; cited from earlier work
human airways = conditions: in vitro; cited from earlier work
mucus release = conditions: in vivo in the cat; cited from earlier work
mucous secretion = test: canine tracheal mucous secretion (hillock count); type: in vivo, mongrel dogs; conditions: 1.0 mg in the CTA
Protocol: Mongrel dogs (weight 18-35 kg) were anesthetized with a mixture of chloralose (100 mg/kg) and urethane (500 mg/kg) via intravenous injection. The animals were secured to a surgery table, ventral side up, and the neck and inner right hind limb were shaved. A ventral midline incision was made in the neck using a Bovie CSVII electrosurgical unit, starting from the papillae (interramal) to the clavicle thus exposing the trachea. An endotracheal tube was secured into the lower trachea. The animals were then connected via the endotracheal tube to a Harvard respirator (Model 607A) that delivered room air at a constant tidal volume and frequency. Two polyethylene catheters were connected to the endotracheal tube, and one was connected to a medical gas analyzer (Beckman, Model LB-2) that continuously measured the carbon dioxide (CO2) content of the expired air for determination of end tidal CO2. The other was connected to a pressure transducer (Statham, Model PMI 131TC+2.5-350) for the measurement of airway press ure.
A second incision made in the inner right hind limb to expose the femoral artery and vein was made for the catheterization of these large vessels. A polyethylene catheter was tied into the artery and connected to a pressure transducer (Statham, Model P231D) for the measurement of blood pressure. This catheter also allowed for samples of arterial blood to be collected for measurements of blood gas tension using a blood gas analyser (Corning, Model 175). Another polyethylene catheter was tied into the femoral vein which was used for injecting additional anesthetic and paralyzing drugs. Gallamine triethiodide (20-40 mg) was used to paralyze the respiratory muscles and a single injection of sodium bicarbonate 7.5% (0.5 mg/kg) in conjunction with a continuous i.v. drip of 5% dextrose in 0.9% saline helped to maintain fluid balance. All physiological measurements were recorded and monitored on a polygraph (Grass instruments, Model 7D). Once the femoral cutdown was completed, surgery on the neck region resumed. The carotid artery was exposed and the "knuckle" (a portion of the carotid which bisects to supply blood flow to the trachea and neck muscles) was located. A small polyethylene catheter was then inserted into the muscular branch of the cranial thyroid artery (CTA). This allowed for close arterial injection of experimental agents. The strap muscles were removed and the mucosal surface of the trachea exposed by cutting along the anterior midline of the upper two-thirds of the extrathoracic trachea and pulling the cut edges widely apart. The exposed mucosa was checked for proper canulation by blanching and appropriate adjustments of the canula into the CTA were made until blanching was achieved.
(§1) Isometric tension measurements of the trachealis muscle were recorded by suturing a rigid, plastic bar to the (15) cartilaginous rings of the cut edges of the trachea, and connecting one side to a fixed restraint and the contralateral side to a force displacement transducer (Grass, Model FT 03C). An initial tension of 25-30 g/cm of trachea was applied to the muscle, and it was allowed to stabilize for 45 min. An initial zero tension point was determined before agonists were injected into the CTA, and the zero was readjusted after agonist injections.
To visualize secretions coming from the submucosal gland duct openings of the trachea, powdered tantalum, an inert metal (2-5 microns in size) was sprayed on the trachea until it formed a uniform layer over the mucosal surface. The tantalum itself did nothing to normal secretion, but prevented the normal ciliary dispersion of secretions from the gland duct openings; these secretions, therefore, caused elevations ("hillocks") in the tantalum layer. The number of hillocks formed in a 1.2 cm^2 field, 1-2 cm from the larynx, were counted and their images were recorded with a video camera (Hitachi CCTV, Model HV-17TU) mounted on a dissecting microscrope (Zeiss Ompi-1) with a beam splitter. […]

trachealis muscle = test: isometric tension of the trachealis muscle in dogs; type: in vivo, mongrel dogs; conditions: 1.0 mg in the CTA
Protocol: as §1
When drug activity was assessed with arachidonic acid induced secretion, the animals were pretreated with indomethacin (Indo) (5 mg/kg) for at least 30 minutes. Before any drugs were given, however, the appropriate controls for arachidonate and indomethacin were run. The standard procedure for this was to determine the effect of (1) arachidonate alone, (2) indomethacin alone, and (3) indomethacin/arachidonate combination on normal baseline secretion. Once these control values were acquired, the drug was given. An experimental drug given in the presence of the indomethacin/arachidonate combination helps to characterize that portion of the response due to lipoxygenase products. […] Hillocks were counted for 2-3 minutes immediately after the arachidonate was given.

SMILES	release of mucus from canine tracheas (canine tracheas)	release of mucus from human airways (human airways)	stimulating mucus release (mucus release)	effect on mucus secretion (mucous secretion)	effect on the trachealis muscle (trachealis muscle)
CCCCC/C=C\C\C=C/C=C/C=C/[C@@H](SC[C@H](NC(=O)CC[C@H](N)C(=O)O)C(=O)NCC(=O)O)[C@@H](O)CCCC(=O)O [LTC4, leukotriene C4]	increase the release of mucus	increase the release of mucus	effective in stimulating mucus release in vivo in the cat		
CCCCC/C=C\C/C=C\C/C=C\C/C=C\CCCC(=O)O [arachidonate, arachidonic acid]		release mucus from human airway		stimulates mucus secretion	slight stimulation followed by relaxation of the trachealis muscle
